Converted amounts (≈) assume the structure as drawn. “And” between values parts separate entries of the source, which are not always exact repeats. Equal entries are not always repeated.
Columns and labels:
[1] = test system: Asp. fumigatus (PTCC 5009); experiment: Microdilution MIC90, strain H; format: cell-based; settings: Aspergillus fumigatus, PTCC5009, 48 h, filamentous fungi, 48 h at 37 °C, triplicate
C. krusei (ATCC 6258) = experiment: Microdilution MIC90, strain B; format: cell-based; settings: 24 h, yeast, 24 h at 37 °C, triplicate
C. glabrata (ATCC 90030) = experiment: Microdilution MIC90, strain C; format: cell-based; settings: 24 h, yeast, 24 h at 37 °C, triplicate
T. rubrum (PTCC 5143) = experiment: Microdilution MIC90, strain K; format: cell-based, Trichophyton rubrum; settings: filamentous fungi, 48 h at 37 °C, triplicate
M. canis (PTCC 5069) = experiment: Microdilution MIC90, strain O; format: cell-based; settings: Microsporum canis, PTCC5069, 48 h
Asp. niger (PTCC 5154) = experiment: Microdilution MIC90, strain I; format: cell-based, Aspergillus niger; settings: Aspergillus niger, PTCC5154, 48 h, filamentous fungi, 48 h at 37 °C, triplicate
Asp. terreus (PTCC 5023) = experiment: Microdilution MIC90, strain J; format: cell-based, Aspergillus terreus; settings: Aspergillus terreus, PTCC5023, 48 h, filamentous fungi, 48 h at 37 °C, triplicate
[2] = test system: Asp. nidulans (PTCC 5014); experiment: Microdilution MIC90, strain F; format: cell-based, Aspergillus nidulans; settings: filamentous fungi, 48 h at 37 °C, triplicate
[3] = test system: C. tropicalis (PTCC 5028); experiment: Microdilution MIC90, strain E; format: cell-based; settings: 24 h
[4] = test system: T. mentagrophytes (PTCC 5054); experiment: Microdilution MIC90, strain M; format: cell-based; settings: Trichophyton mentagrophytes, PTCC5054, 48 h
[5] = test system: Asp. flavus (ATCC 204304); experiment: Microdilution MIC90, strain G; format: cell-based, Aspergillus flavus; settings: filamentous fungi, 48 h at 37 °C, triplicate
[6] = test system: T. schoenleinii (PTCC 5221); experiment: Microdilution MIC90, strain N; format: cell-based; settings: Trichophyton schoenleinii, PTCC5221, 48 h
[7] = test system: Microsporum gypseum (PTCC 5070); experiment: Microdilution MIC90, strain L; format: cell-based; settings: filamentous fungi, 48 h at 37 °C, triplicate
[8] = test system: C. parapsilosis (ATCC 22019); experiment: Microdilution MIC90, strain D; format: cell-based; settings: 24 h
C. albicans (ATCC 10231) [9] = experiment: Microdilution MIC90, strain A; format: cell-based; settings: 24 h, strain A, yeast, 24 h at 37 °C, triplicate
C. albicans (ATCC 10231) [10] = experiment: Murine model of systemic candidiasis; format: in vivo; settings: neutropenic mice (n = 5), 15 mg/kg oral gavage, left kidney tissue
[11] = test system: human red blood cells (hRBCs); experiment: Hemolysis assay; format: cell-based; settings: positive control, 2 h at 37 °C
[12] = Trichophyton rubrum, PTCC5143, 48 h
[13] = Aspergillus nidulans, PTCC5014, 48 h
[14] = Aspergillus flavus, ATCC204304, 48 h

Row | Compound | MIC90 [1] [mg/L] | MIC90 (C. krusei (ATCC 6258)) [mg/L] | MIC90 (C. glabrata (ATCC 90030)) [mg/L] | MIC90 (T. rubrum (PTCC 5143); [12]) [mg/L] | MIC90 (T. rubrum (PTCC 5143)) [μg·mL^–1] | MIC90 (M. canis (PTCC 5069)) [mg/L] | MIC90 (Asp. niger (PTCC 5154)) [mg/L] | MIC90 (Asp. terreus (PTCC 5023)) [mg/L] | MIC90 [2, 13] [mg/L] | MIC90 [2] [μg·mL^–1] | MIC90 [3] [mg/L] | MIC90 [4] [mg/L] | MIC90 [5, 14] [mg/L] | MIC90 [6] [mg/L] | MIC90 [7] [μg·mL^–1] | MIC90 [8] [mg/L] | MIC90 [5] [μg·mL^–1] | MIC90 (C. albicans (ATCC 10231) [9]) [mg/L] | kidney fungal burden, CFU/g (mean ± SD) (C. albicans (ATCC 10231) [10]) | hemolysis [11] [%]
1 | C[C@@H](c1ncncc1F)[C@](O)(Cn1cncn1)c1ccc(F)cc1F [VOR, voriconazole, reference compound] | – | – | – | – | – | – | – | – | – | – | – | – | – | – | – | – | – | – | 318 CFU/g and 318 ± 66.5 ^b CFU/g | –
2 | Triton X-100 [reference compound] | – | – | – | – | – | – | – | – | – | – | – | – | – | – | – | – | – | – | – | 86.2

Second part, led by results:

Row | MIC90 [1] [mg/L] | MIC90 (C. krusei (ATCC 6258)) [mg/L] | MIC90 (C. glabrata (ATCC 90030)) [mg/L] | MIC90 (T. rubrum (PTCC 5143); [12]) [mg/L] | MIC90 (T. rubrum (PTCC 5143)) [μg·mL^–1] | MIC90 (M. canis (PTCC 5069)) [mg/L] | MIC90 (Asp. niger (PTCC 5154)) [mg/L] | MIC90 (Asp. terreus (PTCC 5023)) [mg/L] | MIC90 [2, 13] [mg/L] | MIC90 [2] [μg·mL^–1] | MIC90 [3] [mg/L] | MIC90 [4] [mg/L] | MIC90 [5, 14] [mg/L] | MIC90 [6] [mg/L] | MIC90 [7] [μg·mL^–1] | MIC90 [8] [mg/L] | MIC90 [5] [μg·mL^–1] | MIC90 (C. albicans (ATCC 10231) [9]) [mg/L] | Compound | kidney fungal burden, CFU/g (mean ± SD) (C. albicans (ATCC 10231) [10]) | hemolysis [11] [%]
3 | 32 (≈ 65.4 µM) | 32 (≈ 65.4 µM) | 32 (≈ 65.4 µM) | 2 to 4 (≈ 4.09 to 8.17 µM) | 4 | 16 (≈ 32.7 µM) | 32 (≈ 65.4 µM) | 8 (≈ 16.3 µM) | 2 to 4 (≈ 4.09 to 8.17 µM) | 2 | 16 (≈ 32.7 µM) | 16 (≈ 32.7 µM) | 8 (≈ 16.3 µM) | 16 (≈ 32.7 µM) | 4 | 8 (≈ 16.3 µM) | – | – | O=C(Nc1ccccc1)Nc1nnc(SCC(O)(Cn2cncn2)c2ccc(F)cc2F)s1 (centres unmarked) [Compound 8o, 1-(5-((2-(2,4-Difluorophenyl)-2-hydroxy-3-(1H-1,2,4-triazol-1-yl)propyl)thio)-1,3,4-thiadiazol-2-yl)-3-phenylurea] | – | –
4 | – | – | 32 (≈ 60.9 µM) | 16 (≈ 30.4 µM) | – | 16 (≈ 30.4 µM) | – | 16 (≈ 30.4 µM) | 8 (≈ 15.2 µM) | – | 32 (≈ 60.9 µM) | 16 (≈ 30.4 µM) | 2 to 4 (≈ 3.81 to 7.61 µM) | 16 (≈ 30.4 µM) | 4 | 8 (≈ 15.2 µM) | 4 | – | O=C(Nc1nnc(SCC(O)(Cn2cncn2)c2ccc(F)cc2F)s1)Nc1ccc(F)cc1F (centres unmarked) [Compound 8p, 1-(2,4-Difluorophenyl)-3-(5-((2-(2,4-difluorophenyl)-2-hydroxy-3-(1H-1,2,4-triazol-1-yl)propyl)thio)-1,3,4-thiadiazol-2-yl)urea] | – | –
5 | 32 (≈ 59.5 µM) | 32 (≈ 59.5 µM) | 32 (≈ 59.5 µM) | 2 to 4 (≈ 3.72 to 7.43 µM) | 4 | 32 (≈ 59.5 µM) | 32 (≈ 59.5 µM) | 16 (≈ 29.7 µM) | 8 (≈ 14.9 µM) | – | 64 (≈ 119 µM) | 16 (≈ 29.7 µM) | 2 to 4 (≈ 3.72 to 7.43 µM) | 32 (≈ 59.5 µM) | 4 | 16 (≈ 29.7 µM) | 4 | 64 (≈ 119 µM) | Cc1ccc(NC(=O)Nc2nnc(SCC(O)(Cn3cncn3)c3ccc(F)cc3F)s2)cc1Cl (centres unmarked) [Compound 8r, 1-(3-Chloro-4-methylphenyl)-3-(5-((2-(2,4-difluorophenyl)-2-hydroxy-3-(1H-1,2,4-triazol-1-yl)propyl)thio)-1,3,4-thiadiazol-2-yl)urea] | – | –

Source: paper PMC8482776 (ACS Omega, 2021)
